Assay [1] deals with Delta-type opioid receptor (Homo sapiens, UniProt P41143). The format is cell membranes, HEK293, Membrane. The conditions noted are these: hek293.
In a further assay the target is T1, Interstitial collagenase (Homo sapiens, UniProt P03956).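 Also: MMP-1 enzyme inhibition assay using a peptide substrate; in other assays of this panel Not Active means under 50% inhibition at 10 µM.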
T1 sequence (P03956 whole entry): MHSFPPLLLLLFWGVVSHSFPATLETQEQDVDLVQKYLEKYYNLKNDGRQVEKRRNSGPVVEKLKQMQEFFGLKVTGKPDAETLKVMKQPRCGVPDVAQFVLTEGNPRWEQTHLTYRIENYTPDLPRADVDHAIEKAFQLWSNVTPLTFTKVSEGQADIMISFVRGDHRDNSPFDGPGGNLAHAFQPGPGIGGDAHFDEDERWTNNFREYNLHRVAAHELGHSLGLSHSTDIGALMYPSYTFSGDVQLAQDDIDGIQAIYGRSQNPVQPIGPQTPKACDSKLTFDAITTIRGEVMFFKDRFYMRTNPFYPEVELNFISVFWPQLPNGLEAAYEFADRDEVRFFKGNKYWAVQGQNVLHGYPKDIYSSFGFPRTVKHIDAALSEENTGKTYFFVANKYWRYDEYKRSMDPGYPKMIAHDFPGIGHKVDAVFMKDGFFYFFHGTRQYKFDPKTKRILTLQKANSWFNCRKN
The experiment in a line: biochemical. The format is tissue-based, Rheumatoid synovial fibroblasts.

The target of a further assay is Insulin receptor (Rattus norvegicus, UniProt P15127). The format is cell membranes, Wistar, Liver, Membrane. Also: in other assays of this panel Not Active means under 50% inhibition at 10 µM.
Chain of Insulin receptor (P15127 27-759 limits assumed): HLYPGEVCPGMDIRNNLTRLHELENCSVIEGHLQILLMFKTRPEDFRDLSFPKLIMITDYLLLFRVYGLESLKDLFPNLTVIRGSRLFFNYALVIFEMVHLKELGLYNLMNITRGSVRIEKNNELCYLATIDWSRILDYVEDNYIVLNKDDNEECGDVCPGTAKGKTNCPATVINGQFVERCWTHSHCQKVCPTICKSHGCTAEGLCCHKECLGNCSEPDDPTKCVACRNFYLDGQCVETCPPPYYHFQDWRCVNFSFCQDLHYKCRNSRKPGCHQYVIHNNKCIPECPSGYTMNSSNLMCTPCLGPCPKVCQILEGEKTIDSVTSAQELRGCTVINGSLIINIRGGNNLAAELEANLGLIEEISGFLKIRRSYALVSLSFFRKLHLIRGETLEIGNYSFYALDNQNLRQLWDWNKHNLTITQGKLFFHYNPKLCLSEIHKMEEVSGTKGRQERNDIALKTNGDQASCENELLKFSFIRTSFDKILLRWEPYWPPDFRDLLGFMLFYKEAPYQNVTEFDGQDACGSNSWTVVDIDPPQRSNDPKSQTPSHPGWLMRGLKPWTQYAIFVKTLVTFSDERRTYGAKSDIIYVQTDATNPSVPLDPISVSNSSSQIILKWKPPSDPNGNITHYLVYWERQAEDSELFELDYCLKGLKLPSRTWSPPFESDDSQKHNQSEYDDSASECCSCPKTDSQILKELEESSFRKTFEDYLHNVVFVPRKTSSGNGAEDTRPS
Chain of Insulin receptor (P15127 764-1383 limits assumed): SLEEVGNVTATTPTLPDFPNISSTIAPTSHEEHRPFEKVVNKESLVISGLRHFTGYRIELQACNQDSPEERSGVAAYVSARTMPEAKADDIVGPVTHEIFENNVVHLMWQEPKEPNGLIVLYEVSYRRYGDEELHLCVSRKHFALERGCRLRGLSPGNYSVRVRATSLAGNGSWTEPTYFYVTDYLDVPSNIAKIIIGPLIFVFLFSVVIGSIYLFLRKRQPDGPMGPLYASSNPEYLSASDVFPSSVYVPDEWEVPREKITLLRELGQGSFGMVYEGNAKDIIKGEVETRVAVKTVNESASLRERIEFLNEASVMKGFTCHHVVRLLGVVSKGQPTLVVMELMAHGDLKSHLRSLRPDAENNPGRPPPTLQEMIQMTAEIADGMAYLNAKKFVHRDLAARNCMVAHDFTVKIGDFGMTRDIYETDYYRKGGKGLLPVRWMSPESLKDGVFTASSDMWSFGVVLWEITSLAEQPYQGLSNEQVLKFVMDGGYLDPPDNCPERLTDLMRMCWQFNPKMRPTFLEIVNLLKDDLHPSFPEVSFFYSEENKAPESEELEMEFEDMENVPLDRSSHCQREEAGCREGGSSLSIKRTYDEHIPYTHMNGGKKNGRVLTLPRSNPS
For assay [2], the target named is T2, Polyunsaturated fatty acid lipoxygenase ALOX15 (Oryctolagus cuniculus, UniProt P12530).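 Also: inhibition of 15-lipoxygenase enzyme activity measured with linoleic acid as the substrate; in other assays of this panel Not Active means under 50% inhibition at 10 µM.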
T2 sequence (P12530 whole entry): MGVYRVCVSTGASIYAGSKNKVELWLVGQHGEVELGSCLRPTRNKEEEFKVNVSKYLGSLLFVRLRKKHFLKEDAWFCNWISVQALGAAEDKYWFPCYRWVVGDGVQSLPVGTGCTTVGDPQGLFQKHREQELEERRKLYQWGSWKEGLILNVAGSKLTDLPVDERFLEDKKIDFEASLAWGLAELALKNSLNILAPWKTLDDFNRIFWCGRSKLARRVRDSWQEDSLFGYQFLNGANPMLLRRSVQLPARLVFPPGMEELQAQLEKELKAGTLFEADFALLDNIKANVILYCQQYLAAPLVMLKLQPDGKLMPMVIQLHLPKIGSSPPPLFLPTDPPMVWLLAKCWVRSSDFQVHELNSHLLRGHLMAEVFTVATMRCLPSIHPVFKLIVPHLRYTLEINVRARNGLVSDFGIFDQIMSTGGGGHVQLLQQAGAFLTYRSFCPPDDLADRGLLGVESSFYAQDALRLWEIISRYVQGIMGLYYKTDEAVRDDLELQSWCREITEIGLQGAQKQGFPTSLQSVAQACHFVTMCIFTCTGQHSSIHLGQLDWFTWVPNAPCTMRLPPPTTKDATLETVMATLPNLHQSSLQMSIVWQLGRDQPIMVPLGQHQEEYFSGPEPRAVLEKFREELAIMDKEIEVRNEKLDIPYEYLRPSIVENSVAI
The experiment in a line: biochemical. The format is tissue-based, Reticulocytes.

Assay [3] addresses Mitogen-activated protein kinase 1 (Homo sapiens, UniProt P28482). Kind of assay: DRUGMATRIX: Protein Serine/Threonine Kinase, ERK2 enzyme inhibition (substrate: Myelin Basic Protein). More on the design: species or system Escherichia coli. The conditions noted are these: Not Active = under 50% inhibition at 10 µM.
The target in the next assay is Carbonic anhydrase 2 (Homo sapiens, UniProt P00918). Kind of assay: DRUGMATRIX: Carbonic Anhydrase II enzyme inhibition (substrate: 4-Nitrophenyl acetate (4-NPA)). The conditions noted are these: erythrocyte; Not Active = under 50% inhibition at 10 µM. The format is tissue-based, Erythrocyte.
Assay [4] can be described thus: DRUGMATRIX: Sodium/nucleoside co-transporter radioligand binding (ligand: nitrobenzylthioinosine). The assay is classed as cell membranes, Cavia porcellus, Dunkin-Hartley, Cerebral cortex, Membrane. The conditions noted are these: Not Active = under 50% inhibition at 10 µM.

As a reminder, the IC50 is the point on the concentration scale where inhibition reaches its midpoint.

Chain of Delta-type opioid receptor (P41143 whole entry): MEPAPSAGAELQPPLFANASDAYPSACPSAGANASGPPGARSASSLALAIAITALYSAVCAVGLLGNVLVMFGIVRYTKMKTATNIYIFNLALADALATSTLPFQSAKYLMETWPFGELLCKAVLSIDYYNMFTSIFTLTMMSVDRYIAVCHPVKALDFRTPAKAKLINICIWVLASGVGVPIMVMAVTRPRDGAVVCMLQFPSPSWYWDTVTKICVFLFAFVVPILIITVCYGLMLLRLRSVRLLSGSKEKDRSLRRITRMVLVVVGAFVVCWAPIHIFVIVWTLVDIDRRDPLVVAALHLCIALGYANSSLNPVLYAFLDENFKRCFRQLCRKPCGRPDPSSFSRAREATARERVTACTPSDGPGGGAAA
Chain of Mitogen-activated protein kinase 1 (P28482 whole entry): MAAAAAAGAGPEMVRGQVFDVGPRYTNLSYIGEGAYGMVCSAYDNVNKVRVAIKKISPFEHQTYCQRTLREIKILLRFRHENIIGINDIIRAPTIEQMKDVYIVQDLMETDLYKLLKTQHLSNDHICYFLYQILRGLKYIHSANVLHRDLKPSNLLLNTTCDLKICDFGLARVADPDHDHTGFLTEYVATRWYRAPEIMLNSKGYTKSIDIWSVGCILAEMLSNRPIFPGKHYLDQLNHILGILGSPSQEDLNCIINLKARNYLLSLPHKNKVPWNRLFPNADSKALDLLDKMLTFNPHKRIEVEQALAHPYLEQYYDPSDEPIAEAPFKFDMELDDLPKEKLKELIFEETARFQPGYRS

For the compound `OC[C@H]1O[C@@H]2O[C@H]3[C@H](O)[C@@H](O)[C@@H](O[C@H]4[C@H](O)[C@@H](O)[C@@H](O[C@H]5[C@H](O)[C@@H](O)[C@@H](O[C@H]6[C@H](O)[C@@H](O)[C@@H](O[C@H]7[C@H](O)[C@@H](O)[C@@H](O[C@H]1[C@H](O)[C@H]2O)O[C@@H]7CO)O[C@@H]6CO)O[C@@H]5CO)O[C@@H]4CO)O[C@@H]3CO` [ALFADEX], the IC50 entry (in assay [1]; against Interstitial collagenase; against Insulin receptor; in assay [2] (reticulocytes); in assay [3]; against Carbonic anhydrase 2) was “Not Active” throughout. In addition, the IC50 result in assay [4] is “Not Active”. Also, the Ki result in assay [4] is “Not Active”.

Take `Oc1ncnc2[nH]ncc12` [ALLOPURINOL]: the IC50 result (in assay [1]; at Interstitial collagenase; on Insulin receptor; in assay [2] (reticulocytes); in assay [3]; on Carbonic anhydrase 2) was “Not Active” throughout. Also, in assay [4], the IC50 entry is “Not Active”. In addition, in assay [4], the Ki result was “Not Active”.

Consider `C=CCO` [ALLYL ALCOHOL], for which the IC50 entry (in assay [1]; against Interstitial collagenase; against Insulin receptor; in assay [2] (reticulocytes); in assay [3]; against Carbonic anhydrase 2) was “Not Active” throughout. Besides, in assay [4], the IC50 entry is given as “Not Active”. For the same compound, the Ki result in assay [4] is “Not Active”.

Consider `Nc1nc(N)c2nc(CNc3ccc(C(=O)N[C@@H](CCC(=O)O)C(=O)O)cc3)cnc2n1` [AMINOPTERIN], for which the IC50 result (in assay [1]; against Interstitial collagenase; against Insulin receptor; in assay [2] (reticulocytes); in assay [3]; on Carbonic anhydrase 2) was “Not Active” in each case. Moreover, in assay [4], the IC50 entry is on record as “Not Active”. For the same compound, the Ki entry in assay [4] is reported as “Not Active”.

Take `Nc1ccc(C(=O)O)c(O)c1` [AMINOSALICYLIC ACID]: the IC50 result (in assay [1]; at Interstitial collagenase; against Insulin receptor; in assay [2] (reticulocytes); in assay [3]; at Carbonic anhydrase 2) was “Not Active” in each case. For the same compound, the concentration for half-maximal inhibition (IC50) result in assay [4] is reported as “Not Active”. Moreover, the Ki result in assay [4] is given as “Not Active”.

On to `CC(C)(C#N)c1cc(Cn2cncn2)cc(C(C)(C)C#N)c1` [ANASTROZOLE], for which the IC50 result (in assay [1]; against Interstitial collagenase; on Insulin receptor; in assay [2] (reticulocytes); in assay [3]; against Carbonic anhydrase 2) was “Not Active” in each case. In assay [4], the IC50 result was “Not Active”. The Ki result in assay [4] is given as “Not Active”.

On to `C[C@]12CC[C@@H](O)C[C@@H]1CC[C@@H]1[C@@H]2CC[C@]2(C)C(=O)CC[C@@H]12` [ANDROSTERONE], for which the IC50 result (in assay [1]; at Interstitial collagenase; against Insulin receptor; in assay [2] (reticulocytes); in assay [3]; against Carbonic anhydrase 2) was “Not Active” each time. Moreover, the IC50 result in assay [4] is reported as “Not Active”. For the same compound, in assay [4], the Ki result is recorded as “Not Active”.

Consider `CC(C)NCC(O)COc1ccc(CC(N)=O)cc1` (stereo unspecified) [ATENOLOL], for which the IC50 result (in assay [1]; against Interstitial collagenase; against Insulin receptor; in assay [2] (reticulocytes); in assay [3]; against Carbonic anhydrase 2) was “Not Active” throughout. Besides, in assay [4], the IC50 entry is on record as “Not Active”. Besides, the Ki result in assay [4] is given as “Not Active”.

Regarding `NCC(CC(=O)O)c1ccc(Cl)cc1` (stereo unspecified) [BACLOFEN], the IC50 entry (in assay [1]; on Interstitial collagenase; against Insulin receptor; in assay [2] (reticulocytes); in assay [3]; against Carbonic anhydrase 2) was “Not Active” in each case. In addition, in assay [4], the IC50 result was “Not Active”. For the same compound, the Ki entry in assay [4] is “Not Active”.

`O=C(O)c1ccccc1` [BENZOIC ACID]: the IC50 result (in assay [1]; at Interstitial collagenase; against Insulin receptor; in assay [2] (reticulocytes); in assay [3]; at Carbonic anhydrase 2) was “Not Active” throughout. The IC50 result in assay [4] was “Not Active”. In assay [4], the Ki result was “Not Active”.

In the case of `c1ccc2sc(SSc3nc4ccccc4s3)nc2c1` [BENZOTHIAZYL DISULFIDE], the IC50 result (in assay [1]; at Interstitial collagenase; against Insulin receptor; in assay [2] (reticulocytes); in assay [3]; on Carbonic anhydrase 2) was “Not Active” throughout. Besides, the IC50 result in assay [4] is recorded as “Not Active”. Besides, the Ki entry in assay [4] is listed as “Not Active”.

`OC[C@H]1O[C@@H]2O[C@H]3[C@H](O)[C@@H](O)[C@@H](O[C@H]4[C@H](O)[C@@H](O)[C@@H](O[C@H]5[C@H](O)[C@@H](O)[C@@H](O[C@H]6[C@H](O)[C@@H](O)[C@@H](O[C@H]7[C@H](O)[C@@H](O)[C@@H](O[C@H]8[C@H](O)[C@@H](O)[C@@H](O[C@H]1[C@H](O)[C@H]2O)O[C@@H]8CO)O[C@@H]7CO)O[C@@H]6CO)O[C@@H]5CO)O[C@@H]4CO)O[C@@H]3CO` [BETADEX]: the IC50 result (in assay [1]; at Interstitial collagenase; against Insulin receptor; in assay [2] (reticulocytes); in assay [3]; on Carbonic anhydrase 2) was “Not Active” each time. The IC50 entry in assay [4] was “Not Active”. The Ki result in assay [4] was “Not Active”.

On to `C[C@H]1C[C@H]2[C@@H]3CCC4=CC(=O)C=C[C@]4(C)[C@@]3(F)[C@@H](O)C[C@]2(C)[C@@]1(O)C(=O)CO` [BETAMETHASONE], for which the IC50 entry (in assay [1]; against Interstitial collagenase; against Insulin receptor; in assay [2] (reticulocytes); in assay [3]; against Carbonic anhydrase 2) was “Not Active” each time. Besides, the IC50 result in assay [4] is given as “Not Active”. The Ki entry in assay [4] is recorded as “Not Active”.

`CC(C)(c1ccc(O)cc1)c1ccc(O)cc1` [BISPHENOL A]: the IC50 result in assay [1] is “Not Active”; against Interstitial collagenase, “Not Active”; at Insulin receptor it was “Not Active”; in assay [2] (read-out: IC50), 1300 nM; in assay [3] it was “Not Active”; on Carbonic anhydrase 2, “Not Active”. The IC50 result in assay [4] is recorded as “Not Active”. In addition, the Ki result in assay [4] is given as “Not Active”.

Regarding `Cc1c(N)nc([C@H](CC(N)=O)NC[C@H](N)C(N)=O)nc1C(=O)N[C@H](C(=O)N[C@H](C)[C@@H](O)[C@H](C)C(=O)N[C@H](C(=O)NCCc1nc(-c2nc(C(=O)NCCC[S+](C)C)cs2)cs1)[C@@H](C)O)[C@@H](O[C@@H]1O[C@@H](CO)[C@@H](O)[C@H](O)[C@@H]1O[C@H]1O[C@H](CO)[C@@H](O)[C@H](OC(N)=O)[C@@H]1O)c1c[nH]cn1.[Br-]` [BLEOMYCIN A2], the IC50 entry (in assay [1]; against Interstitial collagenase; against Insulin receptor; in assay [2] (reticulocytes); in assay [3]; against Carbonic anhydrase 2) was “Not Active” each time. The IC50 entry in assay [4] was “Not Active”. In addition, the Ki entry in assay [4] is “Not Active”.

For the compound `CC(N)Cc1c[nH]c2ccc(OCc3cccs3)cc12` (stereo unspecified) [BW-723C86], the IC50 result (in assay [1]; against Interstitial collagenase; against Insulin receptor; in assay [2] (reticulocytes); in assay [3]; against Carbonic anhydrase 2) was “Not Active” in each case. Moreover, the IC50 result in assay [4] was “Not Active”. For the same compound, the Ki result in assay [4] is recorded as “Not Active”.

In the case of `CC12CCC(CC1=O)C2(C)C` (stereo unspecified) [CAMPHOR], the IC50 result (in assay [1]; on Interstitial collagenase; against Insulin receptor; in assay [2] (reticulocytes); in assay [3]; against Carbonic anhydrase 2) was “Not Active” in each case. The IC50 result in assay [4] is recorded as “Not Active”. In assay [4], the Ki result is “Not Active”.

Source of the values: ChEMBL document CHEMBL1909046, “DrugMatrix in vitro pharmacology data”.
